According to PMC4754331, “Programming of metabolic effects in C57BL/6JxFVB mice by in utero and lactational exposure to perfluorooctanoic acid” (Archives of Toxicology, 2015):
Like-named read-outs stand apart in the source and are kept apart here.

Key:
[1] = system: mice (CD-1, NMRI, Balb/c, C57BL/6); set-up: key to Time of effect: P: permanent effect on body weight throughout study; D: delayed (late onset) of effect; T: transient effect; E: effect observed during treatment; conditions: cited from earlier work
F0 C57BL/6J mice = assay: Perinatal dietary exposure: general toxicity and reproduction parameters (litter size, sex ratio, survival); assay type: in vivo
Description: PFOA was obtained as sodium perfluoro-n-octanoate (PFOA-Na; CAS No. 335-95-5, purity >99 %) and kindly provided by Wellington Laboratories Inc., Ontario, Canada. PFOA-Na was dissolved in acetone and mixed with the diet (NIH-07, Research Diet Services, Wijk bij Duurstede, The Netherlands). Thereafter, acetone was allowed to evaporate, and this master mixture was serially diluted with a factor 3–3.3 by adding NIH-07, and afterward, the diet was pelleted. In this way, seven diet groups and a control NIH-07 (blank acetone was added) were obtained, aiming at concentrations of 0, 0.017, 0.056, 0.17, 0.56, 1.7, 5.6 and 17 mg/kg PFOA in feed, which corresponded to 0, 3, 10, 30, 100, 300, 1000 and 3000 µg/kg bw based on an average food consumption of 4.5 g per mouse (average body weight of 25 g) per day. PFOA concentrations in test diets were confirmed by isotope dilution liquid chromatography mass spectrometry after extraction with methanol (8402, JT Baker, Deventer the Netherlands) and a cleanup with carbon solid phase extraction (ENVI Carb, 57210-U, Supelco, Zwijndrecht, the Netherlands). Actual PFOA concentrations in the food were 15–30 % lower than the nominal values. The non-purified soy-based NIH-07 was chosen because it was originally designed to optimize gestation, lactation and growth of rodents, and avoiding natural phytoestrogens in the diet may have confounding effects (Ruhlen et al. [2008]). Estrogenic and anti-estrogenic activity for this diet was previously analyzed to be low and absent, respectively (van Esterik et al. [2014]).
Nulliparous female C57BL/6J mice (Charles River, Sulzfeld, Germany) were mated with male FVB mice (GPL, Bilthoven, The Netherlands) to produce hybrid offspring, for which comprehensive background information of phenotype and development is available (Dollé et al. [2011]). Mice were maintained under specific pathogen-free conditions with a target ambient temperature of 21 °C, humidity of 60 % and with a 12/12 h light/dark cycle. F0 males were single-housed in standard Macrolon type II cages and were fed standard laboratory chow (CRM, Tecnilab-BMI, Someren, The Netherlands). To avoid interference from environmental bisphenol A (van Esterik et al. [2014]), F0 females and their pups during lactation were housed in polysulfone cages (Tecnilab-BMI, Someren, The Netherlands), and drinking water was supplied in glass bottles with rubber stoppers. Cages had spruce/fir wood bedding (Lignocel S 8-15; Tecnilab-BMI, Someren, The Netherlands) and aspen wood shavings (Lignocel 9 S) for cage enrichment. Both feed and water were supplied ad libitum.
After an acclimatization period of 1 week, female F0 mice were fed experimental diets explained above starting 2 weeks before mating and continued during mating (1 week), gestation (3 weeks) and lactation (3 weeks). Each dose group had six F0 females, which were mated three by three with two F0 males for each dose group. […] For every dose group, on average 9 mice per sex (range 6–10) were included for follow-up through juvenile and adult stages, selecting pups proportionally from available litters. F1 males were single-housed, and F1 females were housed in pairs from the same litter in standard Macrolon type I cages. Body weight was measured at postnatal day (PND) 4, 7, 14 and 21 and weekly from 5 weeks of age continuing until the end of the study. Food consumption could not be recorded reliably due to high spillage.

[2] = Balb/c and C57BL/6, 1000-5000-10,000 µg/kg bw/d, oral gavage PND21-49 (5d/w), ref Yang et al. ([2009])
[3] = Balb/c, C57BL/6, 2500 (Balb), 7500 (BL6) µg/kg bw/d, oral gavage PND21-49 (5d/w), ref Zhao et al. ([2012])
[4] = CD-1, 5000 µg/kg bw/d, oral gavage GD1-17, GD8-17, GD12-17, ref White et al. ([2007])
[5] = CD-1, 10-100-1000 µg/kg bw/d, oral gavage GD10-17, ref Macon et al. ([2011])
[6] = CD-1, 10-100-1000 µg/kg bw/d, oral gavage PND18-20, ref Dixon et al. ([2012])
[7] = CD-1, 10–5000 µg/kg bw/d, oral gavage GD1-17, ref Hines et al. ([2009])
[8] = CD-1, 300-1000-3000 µg/kg bw/d, oral gavage GD1-17, ref Macon et al. ([2011])
[9] = CD-1, 1000, 3000, 5000, 10,000, 20,000, 40,000 µg/kg bw/d, oral gavage GD1-17, ref Lau et al. ([2006])
[10] = CD-1, 1000, 5000, 0/1000 + 5 ng/mL via drinking water, GD1-17, ref White et al. ([2011b])
[11] = CD-1, 1000–40,000 µg/kg bw/d, oral gavage GD1-17, ref Lau et al. ([2006])
[12] = CD-1, 3000, 5000 µg/kg bw/d, oral gavage GD1-17, ref White et al. ([2009])
[13] = CD-1, dose 3 [sic], 5 µg/kg bw/d, oral gavage GD1-17, ref Wolf et al. ([2007])
[14] = NMRI, 580-8,700 µg/kg bw/d, oral gavage PND10, ref Johansson et al. ([2008])

O=C(O)C(F)(F)C(F)(F)C(F)(F)C(F)(F)C(F)(F)C(F)(F)C(F)(F)F [PFOA, Perfluorooctanoic acid]
Endpoint bw (age) F [1, 2]: ↓ PND45-46 | Other relevant effects of PFOA [1, 2]: PND49: delayed vaginal opening; ↑ abs/rel liver weight; inhibition mammary gland/uterine development | Time of effect [1, 2]: E | Endpoint bw (age) F [1, 3]: ↓ PND42-49 (BL6) | Other relevant effects of PFOA [1, 3]: delayed/absent vaginal opening; lack of estrous cycling; ↓ovarian steroid hormonal synthetic enzyme levels | Time of effect [1, 3]: E | Other relevant effects of PFOA ([1]; C57BL/6/Bkl, 300 µg/kg bw/d, diet GD1-PND0, ref Onishchenko et al. ([2011])): M + F: changes in exploratory behavior; M: ↑ activity | Other relevant effects of PFOA ([1]; C57BL/6, 5000 µg/kg bw/d, oral gavage PND21-49 (5d/w), ref Zhao et al. ([2010])): ↑ serum progesterone; ↑ mammary gland response to estrogen and/or progesterone | Time of effect ([1]; CD-1, 5000 µg/kg bw/d, oral gavage GD1-17, GD8-17, GD12-17, no follow-up of animals, ref White et al. ([2007])): P^c | Endpoint bw (age) F [1, 4]: ↓ PND1-20 | Endpoint bw (age) M [1, 4]: ↓ PND1-20 | Other relevant effects of PFOA [1, 4]: altered mammary gland development in dams + female pups | Endpoint bw (age) F [1, 5]: – PND1-21 | Endpoint bw (age) M [1, 5]: – PND1-21 | Other relevant effects of PFOA [1, 5]: M + F: hepatomegaly; F: mammary gland developmental abnormalities | Endpoint bw (age) F [1, 6]: – PND21 | Other relevant effects of PFOA [1, 6]: PND21: ↑ abs/rel uterine weight (lowest dose) | Endpoint bw (age) F ([1]; CD-1, 10, 100, 300, 1000, 3000, 5000 µg/kg bw/d, oral gavage GD1-17, ref Hines et al. ([2009])): ↓ PND1,21 (high doses); ↑ 20-40w (low doses) | Other relevant effects of PFOA [1, 7]: 21–33w: ↑ insulin; ↑ leptin (low doses); 18 m, weights abs/rel: ↓ abdominal white fat (high doses); ↑ interscapular fat (high doses); – liver | Time of effect [1, 7]: D T | Endpoint bw (age) F [1, 8]: – PND7-85 | Endpoint bw (age) M [1, 8]: – PND7-85 | Other relevant effects of PFOA [1, 8]: M + F: delayed mammary gland development | Endpoint bw (age) F [1, 9]: ↓ PND1-25; – 6.5w-60w | Endpoint bw (age) M [1, 9]: ↓ PND1-25; – 6.5w-60w | Other relevant effects of PFOA [1, 10]: delay in mammary gland development and/or lactational differentiation (P0, F1, F2) | Time of effect [1, 10]: T | Endpoint bw (age) F ([1]; CD-1, 1000, 5000, 0/1000 + 5 ng/mL via drinking water, oral gavage GD1-17, GD1-end of study (5 ng/mL groups), ref White et al. ([2011b])): ↓ PND42 (F1); ↑ PND14-22 (F2) | Other relevant effects of PFOA [1, 11]: M: earlier preputial separation | Time of effect [1, 11]: T | Endpoint bw (age) F [1, 12]: ↓ PND21-85 | Other relevant effects of PFOA [1, 12]: weaning age: abnormal (delay) mammary gland development; ↑ rel liver weight | Time of effect [1, 12]: T | Endpoint bw (age) M ([1]; CD-1, 3000, 5000 µg/kg bw/d, oral gavage GD1-17, ref Wolf et al. ([2007])): ↓ PND1-22; ↑ PND85 - 35w (dose 3000) | Endpoint bw (age) F [1, 13]: ↓ PND1-22 | Other relevant effects of PFOA [1, 13]: M + F, PND22: ↑ abs/rel liver weight | Time of effect [1, 13]: T; D (dose 3000) | Endpoint bw (age) M [1, 14]: – PND10 + 28 | Other relevant effects of PFOA [1, 14]: 8/16w: neurotoxicity | Most sensitive developmental BMDL ([1]; ref Lau et al. [2006]): 616 µg/kg bw/d | Sex ratio or survival of the F1 generation (F0 C57BL/6J mice; 3–3000 µg/kg bw/day): No effects | Litter size: BMD (CED) (F0 C57BL/6J mice; F0 dams exposed via diet 2 weeks before mating until PND21): 445 µg/kg bw/d | Litter size: CEDL (F0 C57BL/6J mice; Fig. 1, unit from legend): 299.1 µg/kg body weight/day | Litter size: CEDU (F0 C57BL/6J mice; Fig. 1, unit from legend): 873 µg/kg body weight/day | General toxicity in dams (survival, body weight, weight gain during gestation) (F0 C57BL/6J mice; dietary exposure 3–3000 µg/kg bw/day): no effect
